# Measured values as given in patent publication US9758485B2, “Compounds for controlling arthropods” (priority 2013, dated 2017).
# Read-outs that look alike come from different tables or passages of the source.
# What was measured:
# Myzus persicae = Myzus persicae - spray test; assay type: in vivo; conditions: application rate 100 g/ha; Chinese cabbage leaf discs; after 6 days
# Protocol: Myzus persicae—Spray Test
# Solvent: 78 parts by weight of acetone and 1.5 parts by weight of dimethylformamide
# (§1) Emulsifier: alkylaryl polyglycol ether
# (§2) To produce an appropriate active ingredient formulation, 1 part by weight of active ingredient is dissolved using the specified parts by weight of solvent and made up with water containing an emulsifier concentration of 1000 ppm until the desired concentration is attained. To produce further test concentrations, the preparation is diluted with emulsifier-containing water.
# Discs of Chinese cabbage leaves (Brassica pekinensis) infested by all stages of the green peach aphid (Myzus persicae) are sprayed with an active ingredient formulation of the desired concentration.
# After 6 days, efficacy in % is determined. 100% means that all the aphids have been killed; 0% means that none of the aphids have been killed.
# Ctenocephalides felis = Ctenocephalides felis - in vitro contact tests with adult cat fleas; assay type: in vivo; conditions: application rate 5 μg/cm^2 (=500 g/ha), after 48 h (dead or moribund)
# In short: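 Efficacy, as share of dead or moribund adult Ctenocephalides felis, read 48 h after placing 5-10 fleas in tubes coated by acetone solution (5 μg/cm^2 at 900 ppm). Incubation horizontal at room temperature, ambient humidity; immobile or uncoordinated fleas scored.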
# Musca domestica = Musca domestica test; assay type: in vivo; conditions: application rate 100 ppm; adult houseflies; kill after 2 days
# In short: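 Ten adult Musca domestica are exposed to a sugar-soaked sponge carrying the water-diluted DMSO formulation; kill in % is read 2 days later.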
# [1] = tested on: Boophilus microplus Parkhurst strain, SP-resistant; assay: Boophilus microplus - dip test; assay type: in vivo; conditions: application rate 100 ppm; dip of engorged adult female ticks; laying of fertile eggs, after 7 days
# In short: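 Efficacy reflects suppression of fertile egg laying: 0% means all eggs fertile, 100% none, read at 7 days, doubtful eggs kept ~42 days for larval hatch. Treatment was a complete dip of 8–10 engorged adult female ticks (SP-resistant Parkhurst strain) in a water dilution of a DMSO stock.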
# Spodoptera frugiperda = Spodoptera frugiperda - spray test; assay type: in vivo; conditions: foliar, 168 h, application rate 100 g/ha, caterpillars on maize leaf discs, after 7 days, read-out: efficacy
# Protocol: Spodoptera frugiperda—Spray Test
# (§3) Solvent: 78.0 parts by weight of acetone and 1.5 parts by weight of dimethylformamide
# as §1, §2
# Leaf discs of maize (Zea mays) are sprayed with an active ingredient formulation of the desired concentration and, after drying, populated with caterpillars of the armyworm (Spodoptera frugiperda).
# After 7 days, efficacy in % is determined. 100% means that all the caterpillars have been killed; 0% means that no caterpillars have been killed.
# Amblyomma hebraeum = Amblyomma hebraeum test (tick nymphs, immersion); assay type: in vivo; conditions: application rate 100 ppm; tick nymphs immersed for one minute; kill after 42 days
# In short: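 Mortality (%) is read 42 days post-treatment, where 0% means no ticks and 100% all ticks killed. Nymphs were dipped for 1 min into the test dilution (DMSO stock diluted with water) and afterwards stored on filter paper under controlled climate.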
# [2] = logP determination by HPLC on a reversed-phase column (C18), EEC Directive 79/831 Annex V.A8; assay type: physicochemical
# Lucilia cuprina = Lucilia cuprina test; assay type: in vivo; conditions: Lucilia cuprina, 48 h; application rate 100 ppm; L1 larvae in minced horsemeat; kill after 2 days; read-out: efficacy
# In short: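 Mortality (%) of first-instar blowfly larvae, about 20 per vessel, recorded 2 days after exposure to compound-treated minced horsemeat. Compound dissolved in dimethyl sulphoxide, then water-diluted to the desired concentration.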
# Phaedon cochleariae = Phaedon cochleariae - spray test; assay type: in vivo; conditions: Phaedon cochleariae, foliar, 168 h; application rate 100 g/ha; larvae on Chinese cabbage leaf discs; after 7 days; read-out: efficacy
# Protocol: Phaedon cochleariae—Spray Test
# as §3, §1, §2
# Discs of Chinese cabbage leaves (Brassica pekinensis) are sprayed with an active ingredient formulation of the desired concentration and, after drying, populated with larvae of the mustard beetle (Phaedon cochleariae).
# After 7 days, efficacy in % is determined. 100% means that all the beetle larvae have been killed; 0% means that no beetle larvae have been killed.
# Boophilus microplus = Boophilus microplus - injection test; assay type: in vivo; conditions: Rhipicephalus microplus, 168 h; application rate 20 μg/animal; injected into engorged adult female ticks; laying of fertile eggs, after 7 days; read-out: efficacy
# In short: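 Compound dissolved in DMSO (10 mg per 0.5 ml, then diluted with DMSO to test concentration); 1 μl injected into the abdomen of 5 engorged adult female ticks, which are then held in a climate-controlled room. Efficacy judged after 7 days by laying of fertile eggs.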
# Tetranychus urticae = Tetranychus urticae - spray test, OP-resistant; assay type: in vivo; conditions: foliar, 144 h, application rate 100 g/ha, bean leaf discs, after 6 days, read-out: efficacy
# Protocol: Tetranychus urticae—Spray Test, OP-Resistant
# as §3, §1, §2
# Discs of bean leaves (Phaseolus vulgaris) infested by all stages of the greenhouse red spider mite (Tetranychus urticae) are sprayed with an active ingredient formulation of the desired concentration.
# After 6 days, efficacy in % is determined. 100% means that all the spider mites have been killed; 0% means that none of the spider mites have been killed.
smiles,measurement,setting,value
"Cc1cc(C(F)(C(F)(F)F)C(F)(F)F)cc(C)c1-n1cc(-c2ccc(Cl)c(C(=O)NC3CC3)c2)cn1 [I-T3-1, 2-chloro-N-cyclopropyl-5-[1-[2,6-dimethyl-4-[1,2,2,2-tetrafluoro-1-(trifluoromethyl)ethyl]phenyl]pyrazol-4-yl]benzamide]",efficacy,Myzus persicae,100%
same,efficacy,Ctenocephalides felis,100%
same,efficacy,Musca domestica,100%
same,efficacy,[1],100%
same,pest or weed control at 100 g/ha,Spodoptera frugiperda,100%
same,efficacy,Amblyomma hebraeum,100%
same,chromatographic logP,"[2]; reversed-phase HPLC column (C18), HPLC, reversed-phase C18, acetonitrile/water with formic acid, 55° C., read-out: logP",4.36
same,chromatographic logP,"[2]; reversed-phase HPLC column (C18), HPLC-MS method a), Table I-T3; read-out: logP^a)",4.4
same,chromatographic logP,"[2]; reversed-phase HPLC column (C18), HPLC-MS method a); read-out: logP^a)",4.4
same,pest or weed control at 100 ppm,Lucilia cuprina,100%
same,pest or weed control at 100 g/ha,Phaedon cochleariae,100%
same,pest or weed control at 0.02 mg,Boophilus microplus,100%
same,pest or weed control at 100 g/ha,Tetranychus urticae,100%
